Data taken from patent publication US20230287003A1, “BCL6 INHIBITORS” (Cancer Research Technology Limited, priority 2018, published 2023).

Experiments:
[1] = target: BCL6-NCOR2(SMRT) corepressor protein-protein interaction (Homo sapiens (Human), UniProt P41182); assay: NanoBRET cell assay; format: cell-based; settings: for IC50: read-out: NanoBRET cell avg pIC50 (converted); for NanoBRET cell avg pIC50: HEK293T cells co-transfected with BCL6-nanoLuc and NCOR2-HaloTag, 6 hr incubation
Source text: At 20 hr post-transfection, cells were collected, washed with PBS, and exchanged into media containing phenol red-free OptiMEM+4% FBS (Life Technology).

[2] = target: human BCL6 BTB domain (Trx-6×His-BCL6) / BCOR-AF633 peptide (Homo sapiens (Human), UniProt P41182); assay: HTRF assay; format: binding; settings: 1 nM Trx-6×His-BCL6, 300 nM BCOR-AF633 peptide, 2 hours incubation
Procedure: The % inhibition at each concentration was calculated by normalising FRET ratio to the appropriate high (DMSO with all reagents) and low (DMSO without BCL6) controls.

| Compound | IC50 [1] [nM] | HTRF avg pIC50 (1 nM) [2] | NanoBRET cell avg pIC50 [1] |
| --- | --- | --- | --- |
| Cn1c(=O)c2c(c3cc(Nc4nc(N5C6COCC5CC(O)C6)ncc4Cl)ccc31)NC(C1CC1)C(F)(F)CO2 [Example 11a, 10-((5-chloro-2-((1R,5S,7s)-7-hydroxy-3-oxa-9-azabicyclo[3.3.1]nonan-9-yl)pyrimidin-4-yl)amino)-2-cyclopropyl-3,3-difluoro-7-methyl-1,2,3,4-tetrahydro-[1,4]oxazepino[2,3-c]quinolin-6(7H)-one] | 5.01 | 8.81 |  |
| Cn1c(=O)c2c(c3cc(Nc4nc(N5C6COCC5CC(O)C6)ncc4Cl)ccc31)N[C@@H](C1CC1)C(F)(F)CO2 (stereo partly drawn) [Example 11c, (S)-10-((5-chloro-2-((1R,5S,7R)-7-hydroxy-3-oxa-9-azabicyclo[3.3.1]-nonan-9-yl)pyrimidin-4-yl)amino)-2-cyclopropyl-3,3-difluoro-7-methyl-1,2,3,4-tetrahydro-[1,4]oxazepino[2,3-c]quinolin-6(7H)-one] |  | 8.93 | 8.19 |
| COC[C@@H]1CCCN1C(=O)c1cc(Nc2ccc3c(c2)c2c(c(=O)n3C)OCC[C@H](C)N2)c(Cl)cn1 [Example 4b, (S)-10-((5-chloro-2-((S)-2-(methoxymethyl)pyrrolidine-1-carbonyl)pyridin-4-yl)amino)-2,7-dimethyl-1,2,3,4-tetrahydro-[1,4]oxazepino[2,3-c]quinolin-6(7H)-one] | 3310 | 6.70 |  |
| Cn1c(=O)c2c(c3cc(Nc4nc(N5C6COCC5CC(C)(O)C6)ncc4Cl)ccc31)N[C@@H](C1CC1)CCO2 (stereo partly drawn) [Example 12h, (R)-10-((5-chloro-2-((1R,5S,7S)-7-hydroxy-7-methyl-3-oxa-9-azabicyclo[3.3.1]nonan-9-yl)pyrimidin-4-yl)amino)-2-cyclopropyl-7-methyl-1,2,3,4-tetrahydro-[1,4]oxazepino[2,3-c]quinolin-6(7H)-one] | 145 | 7.93 |  |
| Cn1c(=O)c2c(c3cc(Nc4ccnc(Cl)c4C#N)ccc31)NC(C1CC1)C(F)(F)CO2 (stereo not shown) [Example 1q, 2-chloro-4-((2-cyclopropyl-3,3-difluoro-7-methyl-6-oxo-1,2,3,4,6,7-hexahydro-[1,4]oxazepino[2,3-c]quinolin-10-yl)amino)nicotinonitrile] | 30.2 | 8.35 |  |
| C[C@@H]1CN(c2nc(Cl)c(Cl)c(Nc3ccc4c(c3)c3c(c(=O)n4C)OCC[C@H](C4CC4)N3)n2)C[C@H](C)O1 [Example 1r, (R)-2-cyclopropyl-10-((5,6-dichloro-2-((2S,6R)-2,6-dimethylmorpholino)pyrimidin-4-yl)amino)-7-methyl-1,2,3,4-tetrahydro-[1,4]oxazepino[2,3-c]quinolin-6(7H)-one] | 1020 | 6.51 |  |
| Cn1c(=O)c2c(c3cc(Nc4nc(-n5ccc(C(F)(F)F)n5)ncc4Cl)ccc31)N[C@@H](C1CC1)CCO2 [Example 5a, (R)-10-((5-chloro-2-(3-(trifluoromethyl)-1H-pyrazol-1-yl)pyrimidin-4-yl)amino)-2-cyclopropyl-7-methyl-1,2,3,4-tetrahydro-[1,4]oxazepino[2,3-c]quinolin-6(7H)-one] | 617 | 7.03 |  |
| Cn1c(=O)c2c(c3cc(Nc4nc(N5CC(C)(C)OC(C)(C)C5)ncc4Cl)ccc31)N[C@@H](C1CC1)CCO2 [Example 5k, (R)-10-((5-chloro-2-(2,2,6,6-tetramethylmorpholino)pyrimidin-4-yl)amino)-2-cyclopropyl-7-methyl-1,2,3,4-tetrahydro-[1,4]oxazepino[2,3-c]quinolin-6(7H)-one] | 112 | 7.22 |  |
| C[C@H]1CCOc2c(c3cc(Nc4ccnc(Cl)c4Cl)ccc3n(C)c2=O)N1 [Example 4a, (S)-10-((2,3-dichloropyridin-4-yl)amino)-2,7-dimethyl-1,2,3,4-tetrahydro-[1,4]oxazepino[2,3-c]quinolin-6(7H)-one] | 4900 | 6.21 |  |
| Cn1c(=O)c2c(c3cc(Nc4ccnc(Cl)c4C#N)ccc31)N[C@@H](C1CC1)COC2 [Example 9b, (S)-2-chloro-4-((2-cyclopropyl-7-methyl-6-oxo-1,2,3,5,6,7-hexahydro-[1,4]oxazepino[6,5-c]quinolin-10-yl)amino)nicotinonitrile] | 2000 | 6.57 |  |
| Cn1c(=O)c2c(c3cc(Nc4nc(N5C6COCC5CC(O)C6)ncc4Cl)ccc31)N[C@@H](C1CC1)CCO2 (stereo partly drawn) [Example 5n, (R)-10-((5-chloro-2-((1R,5S,7S)-7-hydroxy-3-oxa-9-azabicyclo[3.3.1]nonan-9-yl)pyrimidin-4-yl)amino)-2-cyclopropyl-7-methyl-1,2,3,4-tetrahydro-[1,4]oxazepino[2,3-c]quinolin-6(7H)-one] | 36.3 | 7.97 |  |
| C[C@H]1CCOc2c(c3cc(Nc4cc(C(=O)N5CCC5)nc(Cl)c4C#N)ccc3n(C)c2=O)N1 [Example 3a, (S)-6-(azetidine-1-carbonyl)-2-chloro-4-((2,7-dimethyl-6-oxo-1,2,3,4,6,7-hexahydro-[1,4]oxazepino[2,3-c]quinolin-10-yl)amino)nicotinonitrile] | 4790 | 6.88 |  |
| Cn1c(=O)c2c(c3cc(Nc4nc(N5C6COCC5CC(O)C6)ncc4Cl)ccc31)N[C@@H](C1CC1)CCS2 (stereo partly drawn) [Example 15a, (R)-10-((5-chloro-2-((1R,5S,7S)-7-hydroxy-3-oxa-9-azabicyclo[3.3.1]-nonan-9-yl)pyrimidin-4-yl)amino)-2-cyclopropyl-7-methyl-1,2,3,4-tetrahydro-[1,4]thiazepino[2,3-c]quinolin-6(7H)-one] | 28.8 | 8.12 |  |
| CCC1CCOc2c(c3cc(Nc4ccnc(Cl)c4C#N)ccc3n(C)c2=O)N1 (stereo not shown) [Example 1c, 2-chloro-4-((2-ethyl-7-methyl-6-oxo-1,2,3,4,6,7-hexahydro-[1,4]oxazepino[2,3-c]quinolin-10-yl)amino)nicotinonitrile] | 8710 | 6.32 |  |
| Cn1c(=O)c2c(c3cc(Nc4nc(N5CCC(F)(F)CC5)ncc4Cl)ccc31)NC(C1CC1)COC2=O (stereo not shown) [Example 8o, 10-((5-chloro-2-(4,4-difluoropiperidin-1-yl)pyrimidin-4-yl)amino)-2-cyclopropyl-7-methyl-2,3-dihydro-[1,4]oxazepino[6,5-c]quinoline-5,6(1H,7H)-dione] | 9330 | 6.43 |  |
| Cn1c(=O)c2c(c3cc(Nc4ccnc(Cl)c4C#N)ccc31)N[C@@H](C1CC1)CCS2 [Example 1s, (R)-2-chloro-4-((2-cyclopropyl-7-methyl-6-oxo-1,2,3,4,6,7-hexahydro-[1,4]thiazepino[2,3-c]quinolin-10-yl)amino)nicotinonitrile] | 63.1 | 7.83 |  |
| Cn1c(=O)c2c(c3cc(Nc4cc(C(=O)N5CC(C(F)(F)F)C5)nc(Cl)c4C#N)ccc31)N[C@@H](C1CC1)CCO2 [Example 3b, (R)-2-chloro-4-((2-cyclopropyl-7-methyl-6-oxo-1,2,3,4,6,7-hexahydro-[1,4]oxazepino[2,3-c]quinolin-10-yl)amino)-6-(3-(trifluoromethyl)azetidine-1-carbonyl)nicotinonitrile] | 646 | 7.32 |  |
| Cn1c(=O)c2c(c3cc(Nc4nc(N5C6CCC5CC(O)C6)ncc4Cl)ccc31)N[C@@H](C1CC1)CCO2 (stereo partly drawn) [Example 12f, (R)-10-((5-chloro-2-((1R,3R,5S)-3-hydroxy-8-azabicyclo[3.2.1]octan-8-yl)pyrimidin-4-yl)amino)-2-cyclopropyl-7-methyl-1,2,3,4-tetrahydro-[1,4]oxazepino[2,3-c]quinolin-6(7H)-one] | 295 | 7.96 |  |
| Cn1c(=O)c2c(c3cc(Nc4nc(N5C6CCC5COC6)ncc4Cl)ccc31)N[C@@H](C1CC1)CCO2 [Example 5l, (R)-10-((2-(3-oxa-8-azabicyclo[3.2.1]octan-8-yl)-5-chloropyrimidin-4-yl)amino)-2-cyclopropyl-7-methyl-1,2,3,4-tetrahydro-[1,4]oxazepino[2,3-c]quinolin-6(7H)-one] | 120 | 7.49 |  |
| C[C@H]1COC(=O)c2c(c3cc(Nc4nc(N5C6CCC5CC(F)(F)C6)ncc4Cl)ccc3n(C)c2=O)N1 [Example 8f, (2S)-10-((5-chloro-2-(3,3-difluoro-8-azabicyclo[3.2.1]octan-8-yl)pyrimidin-4-yl)amino)-2,7-dimethyl-2,3-dihydro-[1,4]oxazepino[6,5-c]quinoline-5,6(1H,7H)-dione] | 6920 | 6.67 |  |
| C[C@H]1COC(=O)c2c(c3cc(Nc4cc(OC5CCOCC5)ncc4Cl)ccc3n(C)c2=O)N1 [Example 7a] | 19100 | 6.72 |  |
| Cn1c(=O)c2c(c3cc(Nc4nc(N5CC(F)(F)C[C@@H]5CO)ncc4Cl)ccc31)N[C@@H](C1CC1)C(F)(F)CO2 [Example 12x, (S)-10-((5-chloro-2-((R)-4,4-difluoro-2-(hydroxymethyl)pyrrolidin-1-yl)pyrimidin-4-yl)amino)-2-cyclopropyl-3,3-difluoro-7-methyl-1,2,3,4-tetrahydro-[1,4]oxazepino[2,3-c]quinolin-6(7H)-one] | 145 | 8.20 |  |
| (R)-10-((5-chloro-2-((3S,5R)-3-hydroxy-5- methylpiperidin-1-yl)pyrimidin-4-yl)amino)-2-cyclopropyl-7- methyl-1,2,3,4-tetrahydro-[1,4]oxazepino[2,3-c]quinolin-6(7H)-one or (R)-10-((5-chloro-2-((3R,5S)-3-hydroxy-5-methylpiperidin-1- yl)pyrimidin-4-yl)amino)-2-cyclopropyl-7-methyl-1,2,3,4-tetrahydro- [1,4]oxazepino[2,3-c]quinolin-6(7H)-one: formic acid (1:1) [Example 12d] |  | 7.74 | 7.06 |
